From paper PMC4814829, “Design, synthesis, crystallization and biological evaluation of new symmetrical biscationic compounds as selective inhibitors of human Choline Kinase α1 (ChoKα1)” (Scientific Reports, 2016)
Where two headings read alike, the source gives them in different places.

How the values were obtained:
[1] = biological target: purified human ChoKα1 (Homo sapiens, UniProt P35790); test: Determination of human choline kinase α1 activity ([methyl-14C]choline incorporation into phosphocholine); format: biochemical
Description: The effect of the different inhibitors on human choline kinase (ChoK) was assayed in ChoKα1 purified as previously described[32]. In each experiment DMSO-assays were always run in parallel as a control. DMSO in no case exceeded a concentration of 0.1% in order to avoid unspecific ChoK inhibition. ChoK activity was assayed by measuring the rate of incorporation of ^14C from [methyl-^14C]choline into phosphocholine both in the presence or absence of different inhibitor concentrations. Briefly, the final reaction mixture contained 100 mM Tris (pH 8.5), 10 mM MgCl2, and 10 mM ATP, and 20 ng of purified ChoKα1. […] The assay was stopped by immersing the reaction tubes in boiling water for 3 min. Aliquots of the reaction mixture were applied to the origin of Silica Gel plates in the presence of phosphocholine (0.1 mg) and choline (0.1 mg) as carriers. The chromatography was developed in methanol/0.6% NaCl/28% NH4OH in water (50:50:5, v/v/v) as solvent. Phosphocholine was visualized under exposure to iodine vapor and the corresponding spot was scraped and transferred to scintillation vials for measurement of radioactivity by a Beckman 6000-TA (Madrid, Spain) liquid-scintillation counter. At least three experiments were performed in all assays.

[2] = tested on: A549 cells; test: Antiproliferative MTT assay; format: cell-based; conditions: Homo sapiens, 72 h, mean ± SEM
Description: (§1) Human T-cell leukemia (Jurkat), human B-cell leukemia (RS 4,11) and human promyelocytic leukemia (HL-60) cells were grown in RPMI-1640 medium (Gibco, Milan, Italy). Breast adenocarcinoma (MCF-7 and MDA-MB-231), human non-small cell lung carcinoma (A549), human cervix carcinoma (HeLa), human prostate adenocarcinoma (PC-3), and human colon adenocarcinoma (HT-29) cells were grown in DMEM medium (Gibco, Milan, Italy). Both media were supplemented with 115 units/mL of penicillin G (Gibco, Milan, Italy), 115 μg/mL of streptomycin (Invitrogen, Milan, Italy) and 10% fetal bovine serum (Invitrogen, Milan, Italy). Stock solutions (10 mM) of the different compounds were obtained by dissolving them in DMSO. Individual wells of 96-well tissue-culture microtiter plates were inoculated with 100 μL of complete medium containing 8 × 10^3 cells. The plates were incubated at 37 °C in a humidified 5% CO2 incubator for 18 h prior to the experiments. After medium removal, 100 μL of fresh medium containing the test compound at different concentrations was added to each well and incubated at 37 °C for 72 h. The percentage of DMSO in the medium in no case exceeded 0.25%.

[3] = tested on: HL-60 cells; test: Antiproliferative MTT assay; format: cell-based; conditions: Homo sapiens, 72 h, mean ± SEM
Description: as §1

[4] = tested on: HT-29 cells; test: Antiproliferative MTT assay; format: cell-based; conditions: Homo sapiens, 72 h, mean ± SEM
Description: as §1

[5] = tested on: HeLa cells; test: Antiproliferative MTT assay; format: cell-based; conditions: Homo sapiens, 72 h, mean ± SEM
Description: as §1

[6] = tested on: Jurkat cells; test: Antiproliferative MTT assay; format: cell-based; conditions: Homo sapiens, 72 h, mean ± SEM
Description: as §1

[7] = tested on: MCF-7 cells; test: Antiproliferative MTT assay; format: cell-based; conditions: Homo sapiens, MCF7, 72 h, mean ± SEM
Description: as §1

[8] = tested on: MDA-MB-231 cells; test: Antiproliferative MTT assay; format: cell-based; conditions: Homo sapiens, 72 h, mean ± SEM
Description: as §1

[9] = tested on: PC-3 cells; test: Antiproliferative MTT assay; format: cell-based; conditions: Homo sapiens, 72 h, mean ± SEM
Description: as §1

[10] = tested on: RS4,11 cells; test: Antiproliferative MTT assay; format: cell-based; conditions: Homo sapiens, 72 h, mean ± SEM
Description: as §1

[11] = tested on: PBL (+Pha); test: Antiproliferative assay in non-tumoral cells (MTT); format: cell-based; conditions: Homo sapiens, non-tumoral cells stimulated with phytohematoagglutinin, 72 h, mean ± SEM
Description: (§2) Peripheral mononuclear cells (PBMC) from healthy donors were obtained by separation on Lymphoprep (Fresenius KABI Norge AS) gradient. After extensive washing, cells were resuspended (1 × 10^6 cells/mL) in RPMI-1640 with 10% fetal bovine serum and incubated overnight. For cytotoxicity evaluations in proliferating PBL cultures, non-adherent cells were resuspended at 5 × 10^5 cells/mL in growth medium, containing 2.5 μg/mL PHA (Irvine Scientific). Different concentrations of the test compounds were added, and viability was determined 72 h later by the MTT test. For cytotoxicity evaluations in resting PBL cultures, non-adherent cells were resuspended (5 × 10^5 cells/mL) and treated for 72 h with the test compounds, as described above.

[12] = tested on: PBL (resting); test: Antiproliferative assay in non-tumoral cells (MTT); format: cell-based; conditions: Homo sapiens, 72 h, mean ± SEM
Description: as §2

[13] = tested on: Human fibroblasts; test: Antiproliferative assay in non-tumoral cells; format: cell-based; conditions: Fibroblast, mean ± SEM
Source text: Human fibroblasts from foreskin were isolated as previously described[58] and maintained in DMEM medium with 10% fetal bovine serum added.

[14] = tested on: panel of nine different human tumor-cell lines; test: Antiproliferative activity against the panel of nine human tumor-cell lines; format: cell-based; conditions: for GI50: Homo sapiens, range or bound over all tested cell lines, read-out: GI50 across the tumor-cell line panel
Description: as §1

[15] = tested on: HUVEC; test: Antiproliferative assay in non-tumoral cells; format: cell-based; conditions: Homo sapiens, mean ± SEM
Description: Human Umbilical Vein Endothelial cells (HUVEC), were prepared from human umbilical-cord veins, as previously described. The adherent cells were maintained in M200 medium added by LSGS (low serum growth supplement), containing FBS, hydrocortisone, hEGF, bFGF, heparin, gentamycin/amphotericin (Life Technologies, Monza, Italy). Once confluent, the cells were detached by trypsin–EDTA solution and used in experiments from the first to sixth passages.

[16] = biological target: T1, human ChoKα1 (Homo sapiens, UniProt P35790); test: Tryptophan fluorescence quenching; format: binding; conditions: mean ± S.D. of at least three independent experiments; 25 °C, enzyme 1 μM; read-out: HsChoKα1 Kd
T1 construct: made in house
Description: All compounds were prepared in 100% DMSO. Their Kds against human ChoKα1 were measured by monitoring the quenching of tryptophan fluorescence. All experiments were performed in a Cary Eclipse spectrofluorometer (Varian) at 25 °C with the enzymes at 1 μM, and concentrations of compounds varying from 0.1 to 5 μM for ChoKα1 in 25 mM Tris, 150 mM NaCl, pH 7.5. Fluorescence emission spectra were recorded in the 300–400 nm range with an excitation wavelength of 280 nm, with slit width of 5 nm. Controls were determined by incubating the enzymes with equivalent amounts of DMSO. As indicated previously, data analysis was performed in Prism (GraphPad software) considering a model with a single binding site (Eq. 1), where F0 is the intrinsic fluorescence of the enzyme in the absence of quencher (Q), F1 is the observed fluorescence at a given quencher concentration, fa is the fractional degree of fluorescence, and Kd is the dissociation constant.

[17] = mean ± SEM, three independent experiments, read-out: IC50 ChoKα1 purified

purified human ChoKα1, sequence (P35790 whole entry): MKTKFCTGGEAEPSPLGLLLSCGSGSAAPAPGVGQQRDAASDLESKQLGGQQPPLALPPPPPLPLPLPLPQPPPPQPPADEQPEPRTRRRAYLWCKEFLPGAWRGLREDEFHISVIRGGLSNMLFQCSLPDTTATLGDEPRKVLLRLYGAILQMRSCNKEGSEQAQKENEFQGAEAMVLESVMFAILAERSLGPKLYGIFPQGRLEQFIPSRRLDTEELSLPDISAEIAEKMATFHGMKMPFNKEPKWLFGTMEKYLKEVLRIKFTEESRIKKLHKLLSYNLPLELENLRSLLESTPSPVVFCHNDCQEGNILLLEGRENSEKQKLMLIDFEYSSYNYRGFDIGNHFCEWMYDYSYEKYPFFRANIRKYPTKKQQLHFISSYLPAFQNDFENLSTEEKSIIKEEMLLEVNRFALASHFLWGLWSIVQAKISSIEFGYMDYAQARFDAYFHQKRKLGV
T1 sequence (P35790 whole entry): as above

Compound | IC50 [1, 17] [µM] | GI50 [2] [µM] | GI50 [3] [µM] | GI50 [4] [µM] | GI50 [5] [µM] | GI50 [6] [µM] | GI50 [7] [µM] | GI50 [8] [µM] | GI50 [9] [µM] | GI50 [10] [µM] | GI50 [11] [µM] | GI50 [12] [µM] | GI50 [13] [µM] | GI50 [14] [µM] | IC50 [1] [µM] | Antiproliferative activity in all cell lines (in words) [14] | GI50 [15] [µM] | Kd [16] [µM]
c1cc(OCCOc2ccc(C[n+]3ccc(N4CCCC4)cc3)cc2)ccc1C[n+]1ccc(N2CCCC2)cc1 [Compound 10b, 1,1′-(((ethane-1,2-diylbis(oxy))bis(4,1-phenylene))bis(methylene))bis(4-(pyrrolidin-1-yl)pyridinium) bromide] | 9.56 ± 1.45 | 2.3 ± 1.1 | 0.042 ± 0.005 | 4.3 ± 0.42 | 0.082 ± 0.041 | 0.068 ± 0.016 | 0.17 ± 0.032 | 0.09 ± 0.02 | 4.5 ± 1.1 | 1.12 ± 0.22 | 1.88 ± 0.71 | 34.8 ± 15.6 | 30.5 ± 9.6 | 0.042 to 4.5 | – | – | – | –
CN(c1ccc(Cl)cc1)c1cc[n+](Cc2ccc(OCCOc3ccc(C[n+]4ccc(N(C)c5ccc(Cl)cc5)cc4)cc3)cc2)cc1 [Compound 10c, 1,1′-(((ethane-1,2-diylbis(oxy))bis(4,1-phenylene))bis(methylene))bis(4-((4-chlorophenyl)(methyl)amino)pyridinium) bromide] | 1.63 ± 0.14 | 4.9 ± 0.7 | 2.1 ± 0.6 | 4.3 ± 1.1 | 5.6 ± 0.25 | 7.3 ± 0.5 | 3.5 ± 0.72 | 2.2 ± 0.27 | 3.1 ± 0.7 | 2.7 ± 0.13 | – | – | – | 2.1 to 7.3 | – | – | – | –
OC1C[N+]2(Cc3ccc(OCCOc4ccc(C[N+]56CCC(CC5)C(O)C6)cc4)cc3)CCC1CC2.[Br-].[Br-] (stereo not shown) [Compound 10e, 1,1′-(((ethane-1,2-diylbis(oxy))bis(4,1-phenylene))bis(methylene))bis(3-hydroxyquinuclidinium) bromide] | – | > 100 | > 100 | 94 ± 4.2 | > 100 | > 100 | 50.9 ± 11.7 | 63.2 ± 3.9 | 48 ± 1.1 | 66 ± 6.6 | – | – | – | > 10 | 9.51 ± 1.14 | total loss of activity | – | –
[Br-].[Br-].c1cc(OCCOc2ccc(C[N+]34CCC(CC3)CC4)cc2)ccc1C[N+]12CCC(CC1)CC2 [Compound 10d, 1,1′-(((ethane-1,2-diylbis(oxy))bis(4,1-phenylene))bis(methylene))bis(quinuclidinium) bromide] | – | 61.3 ± 16.7 | 84.1 ± 7.4 | > 100 | 16.9 ± 2.5 | > 100 | 91.4 ± 7.6 | 74.3 ± 2.6 | 94.3 ± 12.4 | 37.5 ± 4.2 | – | – | – | > 10 | 37.5 ± 4.45 | total loss of activity | – | –
CN(c1ccccc1)c1cc[n+](Cc2ccc(OCCOc3ccc(C[n+]4ccc(N(C)c5ccccc5)c5ccc(Cl)cc54)cc3)cc2)c2cc(Cl)ccc12 [Compound 10h, 1,1′-(((ethane-1,2-diylbis(oxy))bis(4,1-phenylene))bis(methylene))bis(7-chloro-4-(methyl(phenyl)amino)quinolinium) bromide] | 2.79 ± 0.17 | 0.18 ± 0.08 | 0.92 ± 0.06 | 0.35 ± 0.07 | 0.32 ± 0.062 | 0.31 ± 0.07 | 0.32 ± 0.04 | 0.23 ± 0.04 | 0.85 ± 0.32 | 0.026 ± 0.006 | 0.32 ± 0.03 | 1 ± 0.42 | 3.7 ± 0.43 | – | – | – | 16 ± 6.6 | –
C[N+]1(C)CCOC(O)(c2ccc(-c3ccc(C4(O)C[N+](C)(C)CCO4)cc3)cc2)C1 (stereo not shown) [HC-3, reference compound] | – | – | – | – | – | – | – | – | – | – | – | – | – | – | – | – | – | 0.18 ± 0.03
